Consider two molecules from patent US12036214B2, “Solid dispersion comprising an anticancer compound for improved solubility and efficacy” (COUNCIL OF SCIENTIFIC AND INDUSTRIAL RESEARCH, priority 2018, dated 2024).

Where “and” joins values, the source holds several entries; their conditions need not be identical. Identical values can stand only once.

A short description of series [1]: Water solubility by shake flask method with HPLC analysis. The series is classed as physicochemical. The conditions noted are these: distilled water, 25 °C, thermodynamic from solid. As for the experimental part: (§1) The water solubility of prepared solid dispersions along with compound of Formula A was determined using shake flask method, wherein the analysis was done by HPLC. The in-vitro dissolution studies were performed using U.S.P. type-2 (paddle type) dissolution apparatus at a speed of 50 rpm, and temperature of 37° C.±0.5, using 250 ml of dissolution media (0.25% SLS containing water and phosphate buffer pH 6.8 up to 6 h). Further, the solid dispersions were characterized using different analytical techniques such as DSC, FTIR, XRD, etc.
Solid dispersions were formulated as different formulations containing anticancer compound (formula A) along with different polymers in different proportions as shown in Table 1 and 2. First the anticancer compound and various excipients/hydrophilic polymers were weighed accurately. Both the compound and polymers were dissolved in methanol. Those polymers which were insoluble in methanol were dissolved in water. […] After complete drying, the water solubility of compound was determined by shake-flask method followed by […] analysis. […]
The water solubility of formulations prepared in Example 4 and compound of Formula A was determined in each well of plate containing different solid dispersion formulations. […] The supernatant was then analyzed by RP-HPLC.

A short description of another series: physchem. To be noted: 37 °C, water, thermodynamic from solid.
For the next series, the system named is MIAPaCa-2. The conditions noted are these: read-out: MIAPaCa-2 cell growth GI50; cited from earlier work.
Another series concerns colon xenograft. To be noted: 50 mg/kg, po; cited from earlier work.
Series [2] in a line: pH dependent stability in buffers, SGF, SIF and plasma. Type of series: physicochemical. To be noted: pH 1.2, pH 4.0, pH 6.8, PBS pH 7.4, SGF (pH 1.2), SIF (pH 6.8) and plasma, upto 24 hrs. As to the method:
The stability of compound was performed in pH 1.2 buffer, pH 4.0 buffer, phosphate buffer pH 6.8, phosphate buffered saline pH 7.4, SGF (pH 1.2), SIF (pH 6.8) and plasma upto 24 hrs. The % compound hydrolyzed or degraded was determined by HPLC analysis.

The conditions of series [3]: male, BALB/c, mouse, in vivo, po, 50 mg/kg.
Procedure: (§2) The vehicle used for PK study was 1% v/v Tween 80 in 0.5% sodium CMC in water. Blood samples were collected (n=3/time point) at 0.083 (IV only), 0.25, 0.5, 1, 2, 4, 8 and 24 h, post-dose. At each time point about 200 μL of blood was collected by jugular vein into a labeled microfuge tube containing 200 mM K2EDTA solution (20 μL per mL of blood) and equivalent volume of heparinized saline was replaced following sample collection. The blood samples were processed to obtain the plasma samples within 30 min of scheduled sampling time. All plasma samples were stored below −60° C. until bioanalysis. […] The pharmacokinetic parameters of compound of formula A were calculated using the non-compartmental analysis tool of validated Phoenix® WinNonlin® software (version 6.3).
Series [4] has as its system Ehrlich Ascites Carcinoma (EAC) cells. Description: Ehrlich solid tumor model. Type of series: in vivo. As to the method:
Novel oral solid dispersion containing anticancer compound of formula A was tested for in-vivo anticancer activity using Ehrlich Solid Tumor model. In this model, after oral administration of formulation VKB-SD75 and the compound of formula A in male Swiss mice up to 9 days, the % tumor growth inhibition was calculated on 13th day.
The in-vivo efficacy testing of best identified solid dispersion formulation VKB-SD75 was done using Ehrlich solid tumor model, parallelly with the compound of Formula A. Ehrlich Ascites Carcinoma (EAC) cells were collected from the peritoneal cavity of the Swiss mice weighing 18-23 g, harboring 8-10 days old ascetic tumor. 1×10^7 EAC cells were injected intramuscularly in the right thigh of Swiss male mice selected for the experiment on day 0. The next day, animals were randomized and divided into 8 groups. Seven treatment groups contained 7 animals each and one control groups contained 10 animals each. Treatment group 1-6 were treated with the compound of formula A and solid dispersion formulation at different dose strength once daily from day 1-9. The seventh treatment group was treated with 5-fluorouracil (22 mg/kg, i.p.) from day 1-9 and it served as positive control. The control group was similarly administered normal saline (0.2 ml, i.p) from day 1-9. On day 9 & 13, tumor-bearing thigh of each animal was shaved, and longest and shortest diameters of the tumor were measured with the help of vernier caliper. The percent tumor growth inhibition was calculated on day 13 by comparing the average values of treated groups with that of the control group. Tumor growth in saline-treated control animals was taken to be 100%.

A further series deals with Molt-4. To be noted: read-out: Molt-4 cell growth GI50; cited from earlier work.
The next series is described as follows: in vivo. The conditions noted are these: male, BALB/c, mouse, po, 50 mg/kg.
The nature of series [5]: In-vitro dissolution, USP type-2 paddle apparatus, sink conditions. Type of series: physicochemical. The conditions noted are these: 50 rpm, 37° C. As for the experimental part: as §1
The dissolution profile of compound and solid dispersion formulation VKB-SD75 was studied in sink conditions. For the sink condition, 0.25% SLS was added to dissolution media and dissolution was studied in water and pH 6.8 phosphate buffer (Ilevbare, G. A. et al., Pharmaceutical amorphous solid dispersions, Eds. John Wiley & Sons 2015, pp. 218). The dissolution studies were carried out using Lab-India Dissolution Tester (Model: DS 8000; apparatus 2—Paddle Apparatus) at 50 rpm and 37° C.±0.5 and dissolution media volume was 250 mL. Formulation equivalent to 10 mg of compound was added to each dissolution vessel in triplicate and 1 ml sample was taken and replaced by fresh dissolution media at different time points (0.25, 0.50, 1, 2, 4, 6 hrs).
The percentage drug dissolved was determined by HPLC analysis. […]

In a further series the test system is leukemia xenograft. The conditions noted are these: 50 mg/kg, po; cited from earlier work.
In a further series the test system is CYP/efflux-pump. To be noted: cited from earlier work.
The nature of a further series: Lipophilicity (log P). Type of series: physicochemical.
The subject of series [6] is cancer cells over normal fibroblast-cells. To be noted: cited from earlier work.
A further series relates to pancreatic xenograft. To be noted: 50 mg/kg, po; cited from earlier work.

Procedure for in vivo: as §2

One may read the solubility as how much of the substance goes into solution per volume. Read a low solubility as little dissolved substance. One may read the GI50 as the concentration giving 50% growth inhibition. The Cmax is the peak of the concentration-time curve. A word on the Tmax: it is the time from dosing to the highest level. By log P is commonly meant the decadic logarithm of the partition coefficient of the neutral form, usually between octanol and water. A low value points to lower lipophilicity. Turning to `CN1CC[C@H](c2c(O)cc(O)c3c(=O)cc(/C=C/c4c(Cl)cccc4Cl)oc23)[C@H](O)C1` [Compound of formula A, (1′R,2′S)-2-(2,6-dichlorostyryl)-5,7-dihydroxy-8-(3-hydroxy-1-methylpiperidin-4-yl)-4H-chromen-4-one], the solubility at 24 h in series [1] was 10 to 20 µg/mL. In addition, the solubility at 120 min in “physchem” was in the range of 10 to 20 µg/mL. The GI50 in the series with MIAPaCa-2 and in the series on Molt-4 was below 1000 nM in each case. The “in-vivo efficacy in colon xenograft” value in the series on colon xenograft is given as “showed in-vivo efficacy”. Further, the “% drug remaining” value in series [2] is recorded as above 95%. The AUClast in [3] was determined as 2570 ng·h/mL. Besides, the Cmax in series [3] stood at 656 ng/mL. Besides, the Mortality in series [4] (50 mg/kg p.o), in series [4] (75 mg/kg p.o.) and in series [4] (100 mg/kg p.o.) was 0/7 each time. Besides, the “% Tumor growth inhibition on 13th day” value is 24.75% and 24.75 ± 3.52% in [4] (50 mg/kg p.o, once daily day 1-9); 30.92% and 30% and 30.92 ± 5.32% in [4] (75 mg/kg p.o., once daily day 1-9); 38.63 ± 3.65% in series [4] (100 mg/kg p.o., once daily day 1-9). Further, in “in vivo”, the Tmax came to 1 h. Moreover, the “% drug dissolution” value in series [5] (phosphate buffer pH 6.8, 0.25% SLS, after 1 h) was determined as 63%. The “% drug dissolved” value in series [5] (water containing 0.25% SLS, after 2 h) was 49.15%. The “in-vivo efficacy in leukemia xenograft” value with leukemia xenograft is “showed in-vivo efficacy”. In addition, the CYP/efflux-pump liability result with CYP/efflux-pump is on record as “did not have CYP/efflux-pump liability”. In addition, the “log P” value in the series “Lipophilicity (log P)” is reported as 3.10. Moreover, the “selectivity for cancer cells over normal fibroblast-cells” value in series [6] is “highly selective”. The “in-vivo efficacy in pancreatic xenograft” value with pancreatic xenograft is given as “showed in-vivo efficacy”.

On to `O=c1[nH]cc(F)c(=O)[nH]1` [Formulation 5-FU, 5-fluorouracil, reference compound], for which the Mortality in [4] (22 mg/kg, i/p) is 0/7. In addition, in [4] (22 mg/kg, i/p, day 1-9), the “% Tumor growth inhibition on 13th day” value is recorded as 49.44 ± 6.32%.
